Measured values reported in patent EP4052593B1, “TOBACCO FILLER FOR HEAT-NOT-BURN TOBACCO PRODUCTS, HEAT-NOT-BURN TOBACCO PRODUCT, AND ELECTRICALLY HEATED TOBACCO PRODUCT” (Japan Tobacco Inc., priority 2019, dated 2021).

assay: Measurement of count median diameter of residual aerosol in dilution with DMS (differential mobility spectrometer); format: physicochemical; conditions: Experimental Example 1, DMS
Description: Since the DMS measures an aerosol under reduced pressure (0.25 bar) and a high dilution condition, an aerosol with high volatility is easily vanished and gasified. In the case of an aerosol with relatively low volatility, a particle diameter distribution is obtained in terms of residual aerosol, although the aerosol is reduced by volatilization. In this case, if the diameters of generated aerosol particles are the same, the particle diameter distribution of the residual aerosol varies depending of the level of volatility. In this Example, a peak particle diameter based on the number is considered to indicate the stability under reduced pressure and a high dilution condition and thus is used as the index. A larger count median diameter means that an aerosol is more stably present, and a smaller count median diameter means that an aerosol is more unstable. Under the conditions of this experiment, the primary dilution was performed at 25 L/min, and the secondary dilution was set to 200-fold and performed. Note that a mass peak particle diameter immediately after the generation before dilution and pressure reduction were involved was also separately measured with Spraytec (Model STP5321, Malvern), and, in the types of additives and the range of the amounts of additives added in this Example, there was no difference, and the count median diameters were present at about 200 nm.

count median diameter (result in words) | SMILES
large count median diameters | CCCCCCCCCCCCCCCCCC(=O)O [Example 2, Stearic acid]
large count median diameters | CCCCCCCCCCCCCCCC(=O)O [palmitic acid]

same assay, conditions: Experimental Example 1; DMS, reduced pressure 0.25 bar, primary dilution 25 L/min, secondary dilution 200-fold; weight addition ratio of Table 1

Count median diameter | SMILES
38.7 nm | CCCCCCCC(=O)O [Comparative Example 2, Octanoic acid]
51.6 nm | CCCCCCCCCCCCCC(=O)O [Comparative Example 4, Myristic acid]
61.9 nm | CCCCC/C=C\C/C=C\CCCCCCCC(=O)O [Comparative Example 7, Linoleic acid]
55.1 nm | CCCCCCCC/C=C\CCCCCCCC(=O)O [Comparative Example 8, Oleic acid]

Continued, compound first:

SMILES | Count median diameter
CCCCCCCCCC(=O)O [Comparative Example 3, Decanoic acid] | 50.5 nm
CCCCCCCCCCCCCCCCCCC(=O)O [Comparative Example 5, Nonadecanoic acid] | 74.6 nm
CCCCCCCCCCCCCCCC(=O)O [Example 1, Palmitic acid] | 67.8 nm
CCCCCCCCCCCCCCCCCC(=O)O [Example 2, Stearic acid] | 75.3 nm

assay: Measurement of solubility in glycerin (GC-FID); format: physicochemical; conditions: Experimental Example 1, excess fatty acid in 2 g glycerin, standing 48 hours
Procedure: The solubility in glycerin is most preferably measured by a method for quantitatively determining a fatty acid dissolved in 2 g of glycerin. Specifically, after an excessive amount of a fatty acid is added to glycerin, the mixture is separated into two layers, for example, by standing at ordinary temperature for 24 hours or more or by centrifugal separation, 100 mg aliquot of glycerin is taken, and transferred and dissolved into 2 mL of methanol, and the amount of fatty acid dissolved in glycerin is quantitatively determined by gas chromatograph-flame ionized detector (GC-FID) or gas chromatograph-mass spectrometer (GC-MS).
If the amount of fatty acid excessively added is large, the separation into two layers becomes difficult, and thus it is necessary to add the fatty acid in a slightly excessive amount.

Solubility in glycerin | SMILES
0.14 mg/g | CCCCCCCCCCCCCC(=O)O [Comparative Example 4, Myristic acid]
0.14 mg/g | CCCCC/C=C\C/C=C\CCCCCCCC(=O)O [Comparative Example 7, Linoleic acid]
1.82 mg/g | CCCCCCCC/C=C\CCCCCCCC(=O)O [Comparative Example 8, Oleic acid]

The next lines start with the compound.

SMILES | Solubility in glycerin
CCCCCCCCCCCCCCCCCCC(=O)O [Comparative Example 5, Nonadecanoic acid] | 0.09 mg/g
CC/C=C\C/C=C\C/C=C\CCCCCCCC(=O)O [Comparative Example 6, Linolenic acid] | 0.32 mg/g
